# Test results taken from patent US9932561B2, “Differentiating induced pluripotent stem cells into glucose-responsive, insulin-secreting progeny” (Mayo Foundation for Medical Education and Research, priority 2011, dated 2018).
# Where no end group is shown, it is not given here.
# How the values were obtained:
# Type in all cases: cell-based, human
# [1] = tested on: iPS-derived definitive endoderm cells; assay: Induction of pancreatic endoderm from iPS-derived definitive endoderm, immunofluorescence for PDX1, NEUROD1, NGN3; conditions: definitive endoderm cells treated with FGF10, RA and CYC in the presence of ILV; without ILV low levels of PDX1 expression
# Description: For immunostaining, iPS cells were fixed for 20 minutes at room temperature (RT) in 4% paraformaldehyde (PFA) in PBS, washed in PBS, and blocked for 30 minutes with 5% FBS in PBST (PBS with 0.1% Tween-20 (Sigma). Cells were stained with primary antibodies overnight at 4° C., rinsed by PBS, and incubated with secondary antibodies 1 hour at RT (Martinez-Fernandez et al., Circ. Res., 105:648-656 (2009)). Cells at different stages of differentiation were fixed and stained with primary and secondary antibodies. Primary and secondary antibodies used for characterization of iPS and derived cells were: SSEA-1, SSEA-4, TRA-1-60, TRA-1-81 (Millipore #SCR001), OCT4 (Cell Signaling Technology #2750), SOX2 (Cell Signaling Technology #2748), KLF4 (Abcam #ab26648), NANOG (Abcam #ab21624), mouse anti-S0X17 (R&D Systems #MAB1924), rabbit anti-HNF3 beta/FOXA2 (Millipore #07-633), rabbit anti-PDX1 (Santa Cruz Biotechnology #sc-25403), rabbit anti-NGN3 (Millipore #AB5684), rabbit anti-NEUROD1 (Abcam #16508), mouse anti-insulin (Sigma #I2018), rabbit anti-C-peptide (Cell Signaling Technology #4593), rabbit anti-Insulin (Cell Signaling Technology #4590), mouse anti-proinsulin C-peptide (Millipore #CBL94), mouse anti-glucagon (Abcam #ab10988), MafA (Santa Cruz Biotechnology #sc-66958), and rabbit anti-somatostatin (Dako #A0566). […]
# [2] = tested on: iPS-derived islet-like clusters; assay: C-peptide release assay, glucose stimulated secretion, ELISA; conditions: for C-peptide secretion in response to glucose challenge when the agent is left out of the cocktail: HCF#1-derived islet-like clusters differentiated without ILV or without GLP-1, glucose 10 mM and 27.7 mM
# Description: (§1) (R&D systems) and 100 ng/mL activin A (Peprotech) in advanced RPMI (A-RPMI, Invitrogen) with Pen/Strep for 1 day, followed by treatment with 100 ng/mL activin A in A-RPMI supplemented with 0.2% FBS (Invitrogen) for two days. At step two, cells were cultured in A-RPMI medium containing 50 ng/mL FGF10 (R&D systems), 0.25 μM KAAD-cyclopamine (CYC), and 2% FBS for 2 days. Cells were then treated with 50 ng/mL FGF10, 0.25 μM CYC, and 2 μM all-trans Retinoic Acid (RA) (Sigma) in DMEM (Invitrogen) supplemented with Pen/Strep, 1× B27 supplement (Invitrogen) for 4 days at step three. Cells were then cultured in the presence of 50 ng/mL FGF10, 300 nM ILV (Axxora), and 55 nM GLP-1 (Sigma) in DMEM with 1 × B27 for 4 days at step four. In step five, differentiation medium included 10 μM DAPT (Sigma) and 55 nM GLP-1 in DMEM with 1× B27 and culture lasted 6 days. Finally, in step six, cells were cultured in the presence of 50 ng/mL hepatocyte growth factor (HGF) (R&D systems), 50 ng/mL Insulin-like growth factor 1 (IGF-1) (R&D systems) and 55 nM GLP-1 in CMRL-1066 medium (Invitrogen) with 1× B27 for 6 days. All experiments were repeated more than three times.
# A C-peptide release assay was performed by incubating derived islet-like clusters in Krebs-Ringer solution with bicarbonate and HEPES (KRBH; 129 mM NaCl, 4.8 mM KCl, 2.5 mM CaCl2, 1.2 mM KH2PO4, 1.2 mM MgSO4, 5 mM NaHCO3, 10 mM HEPES, and 0.1% (wt/vol) BSA). […] C-peptide or proinsulin levels were determined using an ultrasensitive C-peptide/proinsulin ELISA kit (Alpco Diagnostics).
# C-peptide secretion from iPS-derived islet-like clusters in response to glucose challenge, the critical physiological function of pancreatic beta cells, was analyzed. To determine whether islet-like cells are capable of C-peptide secretion in response to glucose induction, cells were exposed to increasing concentrations of glucose and secreted C-peptide was measured by ELISA. […]
# [3] = tested on: iPS-derived pancreatic endoderm cells; assay: RT-PCR of pancreatic hormone and islet marker genes during guided differentiation; conditions: following inclusion of GLP-1 with HGF, IGF and DAPT
# Description: as §1, with “Finally, in step six, cells were cultured in the presence of 50 ng/mL hepatocyte growth factor (HGF) (R&D systems), 50 ng/mL Insulin-like growth factor 1 (IGF-1) (R&D systems) and 55 nM GLP-1 in CMRL-1066 medium (Invitrogen) with 1× B27 for 6 days. All experiments were repeated more than three times.” left out
# To determine the expression of endocrine-specific transcription factors and pancreas-specific genes throughout differentiation, the gene expression pattern was analyzed at each stage of differentiation. RT-PCR detected high levels of FOXA2 expression after 3 days of differentiation, confirming induction of definitive endoderm cells (FIG. 8A). […]
Molecule,expression of pancreatic endoderm markers [1],C-peptide secretion in response to glucose challenge when the agent is left out of the cocktail [2],"C-peptide secretion ([2]; pancreatic endoderm treated with HGF, IGF, Exendin-4 and DAPT, data not shown)",gene expression of pancreatic hormones and islet markers by RT-PCR [3]
"CC(C)[C@H]1C(=O)N[C@H](CO)Cc2c[nH]c3cccc(c23)N1C [ILV, indolactam V]","resulted in cells expressing PDX1, NEUROD1, and NGN3",failed to secrete C-peptide,,
Exendin-4,,,failed produce detectable C-peptide secretion,
"glucagon like peptide-1 (HAEGTFTSDVSSYLEGQAAKEFIAWLVKGR; ends and bridges not checked; UniProt P01275 98-127, looked up) [GLP-1, GLP-1 polypeptide (Sigma), used at 55 nM in the differentiation medium]",,failed to secrete C-peptide,,positive gene expression of pancreatic hormones
